{
  "source": "patent US20110288036A1",
  "about": "“Methods for Treating or Preventing Vascular Graft Failure” (priority 2010, published 2011)",
  "key": {"[1]": {"tested_on": "vein graft (inferior vena cava) intimal hyperplasia", "assay": "Mouse vein graft model", "assay_type": "in vivo", "experimental": "12-week-old C57BL/6 wild type mice (Harlan) were used for all experiments, as previously described (Muto, A. et al., J. Exp. Med., 2011, 208(3): 561-575, incorporated herein by reference in its entirety). […] Prior to implantation, the vein was treated ex vivo with 100 μM of MMI-0100 ([…] (SEQ ID NO: 1)) peptide solution, or control PBS solution, for 20 minutes at room temperature.\nTo implant the vein graft, a midline incision was made in the abdomen of a recipient mouse and the infrarenal abdominal aorta was exposed. The abdominal aorta was temporarily occluded with atraumatic micro-clamps and a segment corresponding to the length of the vein graft was excised. The vein was sutured into the arterial circulation using 10-0 nylon in continuous fashion.\nVein grafts were followed postoperatively using the Vevo770® High-Resolution Imaging System (VisualSonics, Toronto, Canada), with weekly measurements of graft wall thickness. At 28 days after surgery, mice were sacrificed to allow explantation of the vein graft. Tissue was either frozen with RNA stabilization reagent (Qiagen) or explanted for paraffin embedding after circulatory flushing with ice-cold PBS followed by 4% paraformaldehyde perfusion-fixation. Vein graft wall thickness, lumen diameter, and outer wall diameter (elastic lamina) were measured in elastin-stained sections using computer morphometry (ImageJ).\nVein graft samples were fixed as described above and harvested for histology. Specimens were embedded in paraffin and cut in cross section (5 μm). Hematoxylin & Eosin, Masson trichrome, and van Gieson elastin staining were performed for all samples. Cells were cultured on gelatin-coated cover slips and fixed with methanol.\nAll sections were treated for antigen retrieval using 10 mmol/L citrate buffer (pH 6.0) prior to boiling or proteinase K (20 μg/ml) treatment, at room temperature, for 10-15 minutes. Immunohistochemical detection was performed using DAB as well as NovaRED® substrate (Vector). Sections were counterstained with Mayer's Hematoxylin.\nThe efficacy of MMI-0100 ([…]; SEQ ID NO: 1) in treating intimal hyperplasia in vivo was examined using a mouse model of vein bypass graft. […] The IVC was soaked in a 100 μM solution of MMI-0100 ([…]; SEQ ID NO: 1) at room temperature for 20 minutes prior to implantation into a host (C57BL/6J) mouse to bypass the infrarenal aorta. Five treated and six untreated veins were transplanted for a total of 11 transplanted animals. Vein graft wall thickness was determined using a […] ultrasound imaging system at each week.\nIn order to further confirm the inhibitory effects of MMI-0100 ([…]; SEQ ID NO: 1) on intimal hyperplasia development in an […] model, the effect of MMI-0100 ([…]; SEQ ID NO: 1) was investigated in a follow-up study using a mouse model of vein graft adaptation. To this end, vein grafts were treated with PBS or 100 μM of MMI-0100 ([…]; SEQ ID NO: 1) for 20 minutes prior to implantation; the thickness of the vein grafts then was examined weekly with ultrasound."}, "[2]": {"tested_on": "human saphenous vein (HSV)", "assay": "Muscle bath: sodium nitroprusside-induced relaxation of human saphenous vein", "assay_type": "cell-based", "settings": "for relaxation: 100 μM pretreatment, phenylephrine 10^-6 M, percent relaxation per method", "experimental": "De-identified, discarded segments of human saphenous vein (HSV) were collected from consented patients undergoing coronary artery or peripheral vascular bypass surgeries. HSV segments were stored in a saline solution until the end of the surgical procedure, at which time they were placed in cold transplant harvest buffer (100 mM potassium lactobionate, 25 mM KH2PO4, 5 mM MgSO4, 30 mM Raffinose, 5 mM Adenosine, 3 mM Glutathione, 1 mM Allopurinol, 50 g/L Hydroxyethyl starch, pH 7.4). The vessels were used within 24 hours of harvest. Using sterile technique, HSV segments were transferred to a 60-mm Petri dish under a sterile hood. The edges (0.5 mm) of each segment were removed with a blade and excess adventitial tissue and fat removed with minimal manipulation. HSV segments were cut into consecutive rings of approximately 1.0 mm in width to be utilized for organ culture or muscle bath experiments. Two rings from each segment were immediately fixed in 10% formalin at 37° C. for 30 min to obtain pre-culture intimal thickening measurements.\nIn preparation for testing vein segment functional viability, HSV rings were weighed and their lengths recorded. To focus on smooth muscle responses, the endothelium was mechanically denuded by rolling the luminal surface of each ring at the tip of a fine vascular forceps before suspension in a muscle bath containing a bicarbonate buffer (120 mM NaCl, 4.7 mM KCl, 1.0 mM MgSO4, 1.0 mM NaH2PO4, 10 mM glucose, 1.5 mM CaCl2, and 25 mM […], pH 7.4) equilibrated with 95% O2 and 5% CO2 at 37° C. The rings were stretched and the length progressively adjusted until maximal tension was obtained. […] Rings were maintained at a resting tension of 1 g, which produces maximal responses to contractile agonists as previously determined, and equilibrated for 2 hours in buffer. […]\nHSV rings were first contracted with 110 mM KCl (with equimolar replacement of NaCl in bicarbonate buffer) and the generated force was measured. […] Rings were relaxed with a cumulative log dose of sodium nitroprusside (SNP), a nitric oxide donor, and the force generated was recorded. […] Rings were then incubated with either buffer alone or buffer plus 100 μM of MMI-0100 ([…] (SEQ ID NO: 1)) for 2 hours, followed by treatment with the same doses of PE and SNP, and the forces generated again recorded. Measured force was normalized for ring weight and length and percent relaxation was calculated; force generated with 10^−6 M of PE was set as 0% relaxation.\nThe enhancing effect of MMI-0100 ([…]; SEQ ID NO: 1) on smooth muscle relaxation was examined by pre-treating harvested human saphenous vein (HSV) with MMI-0100 ([…]; SEQ ID NO: 1) before SNP treatment. […] Percentage of relaxation at 0, 0.01, 0.1, and 1.0 μM of SNP was measured. […]"}},
  "data": [
    {"sequence": "YARAAARQARAKALARQLGVAA [MMI-0100]", "values": [
      {"measurement": "reduced wall thickness compared to control grafts (histological staining)", "setting": "[1]; follow-up study, 100 μM 20 minutes ex vivo, 4 weeks", "value": 72, "unit": "%"},
      {"measurement": "F4/80-positive cells infiltrating into vein grafts", "setting": "[1]; follow-up study, 100 μM 20 minutes ex vivo, 4 weeks, immunohistochemistry", "value": "fewer F4/80-positive cells"},
      {"measurement": "vein graft wall thickness ratio", "setting": "[1]; follow-up study, 100 μM 20 minutes ex vivo, 4 weeks, ultrasound, control 4.7-fold", "value": 2.6, "unit": "fold"},
      {"measurement": "vein graft wall thickness, weekly ultrasound", "setting": "[1]; follow-up study, 100 μM 20 minutes ex vivo, weeks 1-4", "value": "diminished wall thickness at all postoperative time points"},
      {"measurement": "vessel wall thickness relative to originally harvested IVC", "setting": "[1]; graft soaked 100 μM 20 minutes, 4 weeks, ultrasound, control almost five times", "value": "about 2.5 times"},
      {"measurement": "increase in relaxation compared to control-pretreated HSV", "setting": "[2]; 30 μM, 2 hrs pretreatment, norepinephrine contraction, SNP 0-1 μM", "value": "about 40%"},
      {"measurement": "relaxation", "setting": "[2]; SNP 10^-7 M, untreated control 72.768±6.99", "value": "92.54±3.09"},
      {"measurement": "relaxation", "setting": "[2]; SNP 10^-8 M, untreated control 10.825±5.62", "value": "25.622±6.38"}
    ]}
  ]
}
